Consider one molecule from patent publication US10195144B2, “Methods of treating inflammatory and autoimmune diseases and disorders” (Yale University, priority 2012, dated 2019).

Assay [1] deals with CD4 T cells. In words: CD4 T cell proliferation after particle incubation, wash and anti-CD3/anti-CD28 stimulation. The note with it: brief incubation, wash, 4 days stimulation. The class given is cell-based. The protocol:
CD4 T cells were briefly incubated with particles, washed to remove any unbound particles, and then stimulated for 4 days with anti-CD3 and anti-CD28 antibodies to promote proliferation.

For assay [2], the system named is female NZB/W F1 mice. In words: survival of lupus-prone mice under life-long weekly therapy. It counts as in vivo. The procedure:
NZB/W F1 mice develop autoimmunity that resembles human lupus nephritis, with development of glomerulonephritis, anemia, and the generation of autoantibodies specific for double-stranded DNA and other self-antigens. NZB/W F1 mice were administered a life-long, single weekly intraperitoneal injection of nanoparticle therapy beginning at 18 weeks of age, before the onset of proteinuria. The single, weekly MPA dosage in nanoparticles was 0.625 mg of MP A per kg animal (mpk). Control mice received only saline buffer.
Animal studies using female NZB/W F1 mice (The Jackson Laboratory, stock #100008) were performed with the approval of the Yale University Institutional Animal Care and Use Committee. Beginning at 18 weeks of age, NZB/W F1 mice were administered a weekly intraperitoneal injection of nanoparticles or mycophenolic acid in buffer for the entirety of their life. An intraperitoneal injection was used, as opposed to intravenous tail vein injection, to prevent long-term tail vein damage from chronic injections. Mice urine was collected by bladder compression, and blood was collected via retroorbital bleed with isoflurane anesthesia. Mouse survival was continued until symptoms of cachexia (more than 5-10% body weight loss), lethargy, or poor condition warranted humane euthanization.

In assay [3] the test system is NZB/W F1 lupus-prone mice. The experiment in a line: in vivo comparison of nanolipogels and PLGA particles, survival. The note with it: 0.625 mg MPA per kg. The source says:
The efficacy of nanolipogels was compared to PLGA using both in vivo and in vitro evaluation. […] Survival time was monitored to determine and compare in vivo efficacy between particles.

As for `COc1c(C)c2c(c(O)c1C/C=C(\C)CCC(=O)O)C(=O)OC2` [MPA, mycophenolic acid], the “CD4 T cell proliferation and cytokine production” value in assay [1] was “normal proliferation and cytokine production”. Besides, the effect on survival result is given as “no effect on extending survival” in assay [2] (0.625 mpk soluble in buffer); “could not achieve the same therapeutic effect” in assay [2] (10 mpk (16-fold) in buffer, listed as MPA administered in buffer); “no improvement in survival” in assay [2] (10 mpk (16-fold) in buffer, listed as free MPA). Moreover, the “increase of survival time of treated mice” value in assay [3] was “not”.
